The results in this text go back to paper PMC9469100, “Turning Nonselective Inhibitors of Type I Protein Arginine Methyltransferases into Potent and Selective Inhibitors of Protein Arginine Methyltransferase 4 through a Deconstruction–Reconstruction and Fragment-Growing Approach” (Journal of Medicinal Chemistry, 2022).

Common to all, as to format: biochemical
The target in one assay is T1, DOT1L (Homo sapiens, UniProt Q8TEK3).
T1 construct: DOT1L (residues 1–416); N-terminal GST-tag; GST (N); purchased Reaction Biology Corporation
T1 sequence (Q8TEK3 1-416): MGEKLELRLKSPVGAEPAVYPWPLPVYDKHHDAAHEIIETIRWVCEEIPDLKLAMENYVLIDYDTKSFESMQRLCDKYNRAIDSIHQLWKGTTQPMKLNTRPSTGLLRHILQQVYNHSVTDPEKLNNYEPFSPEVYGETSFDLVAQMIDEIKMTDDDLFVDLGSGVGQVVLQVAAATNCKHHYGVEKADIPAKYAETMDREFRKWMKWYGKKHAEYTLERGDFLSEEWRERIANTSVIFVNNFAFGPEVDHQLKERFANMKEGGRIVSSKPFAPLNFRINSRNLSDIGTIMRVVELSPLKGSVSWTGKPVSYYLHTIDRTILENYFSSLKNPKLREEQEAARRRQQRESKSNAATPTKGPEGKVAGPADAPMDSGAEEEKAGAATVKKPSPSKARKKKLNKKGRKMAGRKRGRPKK
In words: HotSpot KMT activity assay, DOT1L. As to conditions: mean ± SD, two experiments, read-out: % enzyme residual activ. after treatment with 12h, 1 µM, DOT1L. Here is the method:
(§1) Then, ^3H-SAM (final concentration 1 μM) was delivered into the reaction mixture to initiate the reaction. After incubation for 60 min at 30 °C, the reaction mixture was delivered to filter-paper for detection (as assessed by scintillation). […] No inhibitor control (DMSO) was considered as 100% enzyme activity. Data were analyzed using Excel and GraphPad Prism 6.0 software (GraphPad Software Inc., San Diego, CA). Values obtained for each compound are mean ± SD determined for two separate experiments.

The next assay deals with T2, SUV420H1 (Homo sapiens, UniProt Q4FZB7).
T2 construct: SUV420H1-tv2 (residues 2–393); C-terminus; N-terminal GST-tag; GST (N); purchased Reaction Biology Corporation
T2 sequence (Q4FZB7 2-393 isoform Q4FZB7-2): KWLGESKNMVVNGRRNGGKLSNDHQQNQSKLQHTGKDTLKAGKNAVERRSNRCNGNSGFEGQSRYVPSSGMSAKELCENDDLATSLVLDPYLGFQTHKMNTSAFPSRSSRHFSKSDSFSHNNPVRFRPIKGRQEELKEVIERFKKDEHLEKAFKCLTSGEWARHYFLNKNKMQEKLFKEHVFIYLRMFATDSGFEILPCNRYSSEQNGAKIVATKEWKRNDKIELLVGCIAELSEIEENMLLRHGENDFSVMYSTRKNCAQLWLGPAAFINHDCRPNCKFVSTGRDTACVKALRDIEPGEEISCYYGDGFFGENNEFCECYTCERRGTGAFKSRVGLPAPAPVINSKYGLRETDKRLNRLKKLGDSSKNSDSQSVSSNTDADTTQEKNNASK
In words: HotSpot KMT activity assay, SUV420H1. As to conditions: 1 µM; mean ± SD, two experiments; read-out: % enzyme residual activ. after treatment with 12h, 1 µM, SUV420H1. How it is done: as §1

A further assay concerns the target T3, EZH2 complex (Homo sapiens, UniProt Q15910).
T3 construct: including EZH2 residues 2–746, AEBP2 2–517; His (N); purchased Reaction Biology Corporation
In words: HotSpot KMT activity assay, EZH2. As to conditions: mean ± SD, two experiments, read-out: % enzyme residual activ. after treatment with 12h, 1 µM, EZH2. Here is the method: as §1

T3 sequence (Q15910 2-746): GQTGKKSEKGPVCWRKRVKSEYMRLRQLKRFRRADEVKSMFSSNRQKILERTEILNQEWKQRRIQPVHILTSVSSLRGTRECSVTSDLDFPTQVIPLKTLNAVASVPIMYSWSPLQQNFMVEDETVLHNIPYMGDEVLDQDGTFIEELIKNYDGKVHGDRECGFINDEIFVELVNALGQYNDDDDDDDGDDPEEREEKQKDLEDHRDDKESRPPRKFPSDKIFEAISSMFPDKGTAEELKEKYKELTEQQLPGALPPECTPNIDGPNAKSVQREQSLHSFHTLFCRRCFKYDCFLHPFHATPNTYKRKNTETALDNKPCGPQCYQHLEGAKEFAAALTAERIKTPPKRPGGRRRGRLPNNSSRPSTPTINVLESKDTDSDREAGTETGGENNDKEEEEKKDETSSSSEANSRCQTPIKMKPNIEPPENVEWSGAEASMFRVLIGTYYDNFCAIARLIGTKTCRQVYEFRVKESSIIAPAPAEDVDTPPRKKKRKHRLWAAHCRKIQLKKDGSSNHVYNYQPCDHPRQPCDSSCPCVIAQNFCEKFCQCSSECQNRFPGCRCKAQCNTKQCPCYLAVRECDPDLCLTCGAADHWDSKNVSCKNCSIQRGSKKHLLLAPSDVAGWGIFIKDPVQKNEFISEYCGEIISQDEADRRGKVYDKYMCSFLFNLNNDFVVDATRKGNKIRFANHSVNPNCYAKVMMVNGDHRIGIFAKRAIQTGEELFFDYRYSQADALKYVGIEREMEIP
T3 sequence (Q6ZN18 2-517 partner limits assumed): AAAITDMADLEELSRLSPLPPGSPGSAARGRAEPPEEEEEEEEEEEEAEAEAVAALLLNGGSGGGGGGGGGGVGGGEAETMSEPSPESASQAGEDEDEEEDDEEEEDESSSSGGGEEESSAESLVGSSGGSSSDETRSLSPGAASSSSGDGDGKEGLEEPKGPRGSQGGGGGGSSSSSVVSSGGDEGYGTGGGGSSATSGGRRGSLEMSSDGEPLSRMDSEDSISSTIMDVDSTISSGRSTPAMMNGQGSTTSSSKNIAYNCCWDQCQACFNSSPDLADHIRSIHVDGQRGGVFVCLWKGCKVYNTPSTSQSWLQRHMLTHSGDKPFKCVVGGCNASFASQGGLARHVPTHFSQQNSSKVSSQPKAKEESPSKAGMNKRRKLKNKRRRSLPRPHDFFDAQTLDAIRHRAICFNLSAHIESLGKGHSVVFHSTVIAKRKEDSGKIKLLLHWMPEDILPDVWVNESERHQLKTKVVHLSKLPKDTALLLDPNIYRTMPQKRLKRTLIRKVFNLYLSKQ
T3 sequence (O75530 2-441 partner limits assumed): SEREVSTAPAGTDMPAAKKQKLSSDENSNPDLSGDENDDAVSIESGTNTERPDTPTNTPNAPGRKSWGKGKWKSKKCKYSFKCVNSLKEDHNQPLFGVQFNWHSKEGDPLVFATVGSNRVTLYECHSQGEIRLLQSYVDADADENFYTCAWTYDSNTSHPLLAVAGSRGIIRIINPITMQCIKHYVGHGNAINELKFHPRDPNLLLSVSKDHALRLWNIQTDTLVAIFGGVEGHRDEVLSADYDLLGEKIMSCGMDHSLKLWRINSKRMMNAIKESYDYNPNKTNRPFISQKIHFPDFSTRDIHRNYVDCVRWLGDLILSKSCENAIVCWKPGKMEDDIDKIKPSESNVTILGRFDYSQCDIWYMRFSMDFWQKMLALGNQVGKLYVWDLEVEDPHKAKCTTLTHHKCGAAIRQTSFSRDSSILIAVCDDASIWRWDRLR
T3 sequence (Q09028 2-425 partner limits assumed): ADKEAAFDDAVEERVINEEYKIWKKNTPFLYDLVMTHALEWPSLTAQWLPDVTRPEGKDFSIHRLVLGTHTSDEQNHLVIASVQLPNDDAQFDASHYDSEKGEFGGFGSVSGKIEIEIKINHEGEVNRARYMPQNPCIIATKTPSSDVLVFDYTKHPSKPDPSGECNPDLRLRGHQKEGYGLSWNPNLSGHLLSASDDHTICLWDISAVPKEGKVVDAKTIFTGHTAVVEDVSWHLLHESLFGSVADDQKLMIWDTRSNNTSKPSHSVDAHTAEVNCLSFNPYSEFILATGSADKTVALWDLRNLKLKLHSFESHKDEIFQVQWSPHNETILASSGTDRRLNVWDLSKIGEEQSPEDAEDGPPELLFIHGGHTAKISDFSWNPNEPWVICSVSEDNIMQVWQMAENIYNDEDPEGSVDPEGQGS
T3 sequence (Q15022 2-739 partner limits assumed): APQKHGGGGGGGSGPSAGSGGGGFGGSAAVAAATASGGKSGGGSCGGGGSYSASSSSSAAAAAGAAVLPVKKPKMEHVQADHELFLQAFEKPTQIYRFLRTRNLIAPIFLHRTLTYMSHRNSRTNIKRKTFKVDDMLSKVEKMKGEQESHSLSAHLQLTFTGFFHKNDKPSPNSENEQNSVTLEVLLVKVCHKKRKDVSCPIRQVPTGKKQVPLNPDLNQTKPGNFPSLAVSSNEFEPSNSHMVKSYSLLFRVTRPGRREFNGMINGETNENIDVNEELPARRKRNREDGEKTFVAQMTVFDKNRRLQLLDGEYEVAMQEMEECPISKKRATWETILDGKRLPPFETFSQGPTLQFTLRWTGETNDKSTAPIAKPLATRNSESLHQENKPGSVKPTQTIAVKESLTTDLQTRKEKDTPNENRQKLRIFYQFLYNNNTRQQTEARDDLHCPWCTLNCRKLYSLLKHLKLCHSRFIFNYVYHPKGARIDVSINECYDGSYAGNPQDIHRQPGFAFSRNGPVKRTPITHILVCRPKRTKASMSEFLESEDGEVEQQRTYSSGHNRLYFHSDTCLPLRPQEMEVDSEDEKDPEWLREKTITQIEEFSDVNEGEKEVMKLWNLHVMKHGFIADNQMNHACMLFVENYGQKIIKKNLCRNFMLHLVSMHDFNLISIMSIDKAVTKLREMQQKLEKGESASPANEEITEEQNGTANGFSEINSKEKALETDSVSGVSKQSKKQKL

As for `COC(=O)c1cc(O)c2cc(NC(=O)NCCCCNC(=N)NC/C=C/[C@H]3O[C@@H](n4cnc5c(N)ncnc54)[C@H](O)[C@@H]3O)ccc2c1` [12h, Methyl 6-(3-(4-(3-((E)-3-((2R,3S,4R,5R)-5-(6-Amino-9H-purin-9-yl)-3,4-dihydroxytetrahydrofuran-2-yl)allyl)guanidino)butyl)ureido)-4-hydroxy-2-naphthoate], the remaining activity at 1 µM at DOT1L came out at 97.7 ± 3.48%; on SUV420H1, 104 ± 1.13%; on EZH2 complex, 84.4 ± 5.51%.
